Results published in patent US20120302636A1, “METHOD OF TREATING A DISORDER ASSOCIATED WITH MTP” (priority 2009, published 2012).

What was measured:
[1] = 3-month oral repeated dose toxicity study in dogs; assay type: in vivo; details: 25 mg/kg
[2] = tested on: gut hormone (GLP-1 active, PYY total, GIP total) levels; experiment: Example 9: gut hormone levels in obese male subjects; assay type: in vivo, human; details: for increase in GLP-1 active compared with placebo / increase in PYY total compared with placebo: 4 hours after dinner
Protocol: The study enrolled 16 obese male subjects (18-65 years of age (inclusive), with a body mass index (BMI) >30.0 kg/m^2 and <40.0 kg/m^2) who participated in two treatment periods. During Period 1, 8 subjects were randomized to receive 3.5 mg of the compound of formula (I), and 8 subjects were randomized to receive placebo. The compound of formula (I) or placebo was administered twice daily (BID), 30 minutes after the start of breakfast and dinner, for 10 days. All subjects were discharged from the clinic at the end of Period 1 for a 9±2 day discharge period. Subjects then returned for treatment during Period 2, in which (i) the group previously receiving the compound of formula (I) now received placebo, and (ii) the group previously receiving placebo now received the compound of formula (I), in accordance with the protocol described above.
The primary objective of this study was to examine the change in gut hormone levels. The co-primary endpoints were trough gut hormone (glucagon-like peptide 1 (GLP-1) active, peptide tyrosine tyrosine (PYY) total, and gastric inhibitory polypeptide (GIP) total) levels on Day 10 in each treatment period and the trough gut hormone profile throughout the study. On Day 10 of each treatment period, statistically significant mean increases in GLP-1 active (60%) and PYY total (43%) were observed during administration of the compound of formula (I) compared with placebo, whereas no change in GIP total relative to placebo was found.

serum lipid levels [3] = experiment: Example 7: serum lipid levels; assay type: in vivo, human
Protocol: Postprandial levels of lipid parameters after administration of the compound of formula (I) were evaluated using the change from preceding timepoint. […] Intraday changes and changes from pretreatment baseline also indicate that the absorption of TG, VLDL-TG, and chylomicron-TG were delayed compared to placebo. This delayed absorption is consistent with a previous pharmacology study in healthy male Japanese subjects. The postprandial results were interpreted with caution as the delay in absorption can impact the calculation regarding the magnitude of the postprandial change in triglycerides. However, the suppression of the expected increases in postprandial TG, VLDL-TG, and chylomicron-TG, which is indicative of MTP inhibition, clearly supports the mechanism of action of the compound of formula (I). The VLDL-TG changes observed in this study are consistent with previous studies (Examples 2 and 6) where the compound of formula (I) was administered for up to 14 days in healthy or hypertriglyceridemic Caucasian and Japanese male subjects. In general, the compound of formula (I) levels were also low or non-quantifiable in these studies. […] Therefore, the compound of formula (I) is not believed to directly affect the liver.

[4] = Example 1: repeated oral dose study of capsules, safety
Protocol: The subjects were divided into two dosing groups, and within each dosing group, the subjects were divided as follows: 6 subjects received the compound of formula (1) and 3 subjects received placebo. […] Subjects were in a fed condition prior to administration of each capsule.
Each active capsule contained a filling solution and a gelatin solution. The filling solution comprised the compound of formula (I) (5 mg), propylene glycol esters of fatty acids, and dehydrated ethanol. The gelatin solution comprised purified water, gelatin, and anhydrized liquid sorbitol. The filling solution and gelatin solution were prepared individually and combined to form a soft capsule. The placebo capsules were prepared in a similar manner except that the filling solution contained only propylene glycol esters of fatty acids and dehydrated ethanol.

[5] = Example 3: pharmacokinetics; assay type: in vivo, human; details: all dose groups
[6] = Example 5: fixed-dose or escalating doses, safety; assay type: in vivo, human
Protocol: (§1) Fifty-two Japanese patients with hyperlipidemia (LDL-C between 140 and 220 mg/dL; TG≦400 mg/dL) participated in the study. […] One group received a fixed dose of 2 mg per tablet through the entire study. The other group received escalating doses of 0.5 mg (weeks 1-4), 1 mg (weeks 5-8), and 2 mg (weeks 9-12). For the efficacy analysis, 50 subjects were observed (25 in the fixed-dose group and 25 in the dose escalation group).
(§2) The objective of this study was preliminary evaluation of the efficacy (based on serum lipid levels), safety, and pharmacokinetics of the compound of formula (I) administered orally twice daily after breakfast and supper for 12 weeks as a fixed dose (4 mg/day) or escalating dose (1 mg/day, 2 mg/day and 4 mg/day) regimen in patients with hyperlipidemia.

serum lipid levels [7] = experiment: Example 5: fixed-dose or escalating doses 12 weeks in hyperlipidemia, efficacy; assay type: in vivo, human; details: for LDL-C level decrease: dose escalation group
Protocol: as §1, §2

CCOC(=O)C(COC(=O)Cc1ccc(NC(=O)c2ccccc2-c2ccc(C(F)(F)F)cc2)c(C(=O)N(C)C)c1)(C(=O)OCC)c1ccccc1 [compound of formula (I), diethyl 2-((2-(3-(dimethylcarbamoyl)-4-(4′-(trifiuoromethyl)biphenyl-2-ylcarboxamido)phenyl)acetoxy)methyl)-2-phenyl malonate]
toxicity findings ([1]; 3-month safety study): no toxicity findings
vitamins D and E ([1]; 3 months oral): decreased or tended to decrease
mean increase in trough GLP-1 active compared with placebo ([2]; 3.5 mg BID, Day 10): 60%
mean increase in trough PYY total compared with placebo ([2]; 3.5 mg BID, Day 10): 43%
trough GIP total relative to placebo ([2]; 3.5 mg BID, Day 10): no change
increase in GLP-1 active compared with placebo ([2]; Day 2): 38%
increase in PYY total compared with placebo ([2]; Day 2): 44%
increase in GLP-1 active compared with placebo ([2]; Day 9): 71%
increase in PYY total compared with placebo ([2]; Day 9): 42%
GIP total relative to placebo ([2]; 4 hours post-dinner, Day 2 and Day 9): No statistically significant differences
gut hormone AUC profiles around breakfast ([2]; Day 2, -0.5 to 3.5 hours relative to dosing): no significant changes
GIP total profile ([2]; Day 2 or Day 9): No significant changes
average increase in GLP-1 active around breakfast ([2]; Day 9): 38%
average increase in PYY total around breakfast ([2]; Day 9): 51%
decrease in AUC for GIP total compared with placebo ([2]; Day 9, around breakfast): 17%
increase in AUC for GLP-1 active compared with placebo ([2]; Day 9, around breakfast): 31%
increase in AUC for PYY total compared with placebo ([2]; Day 9, around breakfast): 39%
average increase in trough PYY total ([2]; days 2 through 11): 63%
average increase in trough GIP total ([2]; days 3, 5 and 11): 24%
average increase in trough GLP-1 active ([2]; days 3 through 11): 45%
postprandial estimates for TG, VLDL-TG, and chylomicron-TG (serum lipid levels [3]; following breakfast and dinner): substantially lower when compared with placebo
decrease in HDL-C levels (serum lipid levels [3]; in vivo): not as pronounced as LDL-C, nor was it statistically significant
pretreatment baseline adjusted values of TC, LDL-C, LDL-TG, ApoB, and phospholipids (serum lipid levels [3]; in vivo): significant reduction
number of adverse events ([4]; 5 mg group): 12
subjects with adverse events (incidence) ([4]; 5 mg group): 83%
vitamins A and E ([4]; 15 mg BID group): Decreased
number of adverse events ([4]; 15 mg group): 32
subjects with adverse events (incidence) ([4]; 15 mg group): 100%
subjects with diarrhea ([4]; 15 mg group, of 6 subjects): 6 subjects
death or serious adverse events ([4]; 5 or 15 mg BID after meals, 14 days, capsules): neither death nor serious adverse events were reported
incidence of ALT increased ([4]; active group): 17%
incidence of abdominal discomfort ([4]; active group): 25%
incidence of anorexia ([4]; active group): 42%
incidence of diarrhea ([4]; active group): 67%
incidence of gastrointestinal disorders (SOC) ([4]; active group): 75%
incidence of investigations (SOC) ([4]; active group): 33%
incidence of metabolism and nutrition disorders (SOC) ([4]; active group): 42%
incidence of moderate abdominal discomfort ([4]; active group): 8%
incidence of moderate diarrhea ([4]; active group): 58%
incidence of moderate feeling queasy ([4]; active group): 8%
incidence of moderate stomach discomfort ([4]; active group): 8%
incidence of stomach discomfort ([4]; active group): 58%
subjects with adverse events (incidence) ([4]; active group (5 and 15 mg BID), 12 subjects): 92%
number of adverse events ([4]; active group, 12 subjects): 44
tolerable dosage ([4]; long-term treatment in outpatients): 5 mg BID
doses at which diarrhea occurred ([4]; repeated BID administration): ≥ 5 mg
plasma concentrations of the compound of formula (I) [5]: below the limit of quantization
events of gastrointestinal disorders ([6]; dose escalation group): 14
events of infections and infestations ([6]; dose escalation group): 6
events of laboratory test ([6]; dose escalation group): 11
incidence of gastrointestinal disorders (SOC) ([6]; dose escalation group): 34.6%
incidence of infections and infestations (SOC) ([6]; dose escalation group): 19.2%
incidence of laboratory test (SOC) ([6]; dose escalation group): 23.1%
incidence of moderate adverse events ([6]; dose escalation group): 15.4%
number of adverse events ([6]; dose escalation group): 37
subjects with adverse events (incidence) ([6]; dose escalation group): 65.4%
subjects with moderate diarrhea ([6]; dose escalation group): three
incidence of gastrointestinal disorders ([6]; dose escalation group, Weeks 9 to 12 (4 mg/day)): 20.0%
events of gastrointestinal disorders ([6]; fixed-dose group): 25
events of infections and infestations ([6]; fixed-dose group): four
events of laboratory test ([6]; fixed-dose group): nine
incidence of gastrointestinal disorders (SOC) ([6]; fixed-dose group): 50.0%
incidence of infections and infestations (SOC) ([6]; fixed-dose group): 15.4%
incidence of laboratory test (SOC) ([6]; fixed-dose group): 23.1%
incidence of moderate adverse events ([6]; fixed-dose group): 15.4%
number of adverse events ([6]; fixed-dose group): 45
subjects with adverse events (incidence) ([6]; fixed-dose group): 65.4%
subjects with moderate diarrhea ([6]; fixed-dose group): four
incidence of gastrointestinal disorders ([6]; fixed-dose group, Weeks 1 to 4 (4 mg/day)): 46.2%
systolic and diastolic blood pressure, pulse rate, body temperature, body weight, ultrasonography ([6]; in vivo): No clinically relevant abnormal changes
death or serious adverse events ([6]; tablets BID, 12 weeks): No death or other serious adverse events occurred
TG level (serum lipid levels [7]; both groups): tended to increase
LDL-C level decrease (serum lipid levels [7]; Week 10 (4 mg/day)): −7.24%
LDL-C level decrease (serum lipid levels [7]; Week 12 (4 mg/day)): −7.12%
LDL-C level maximum decrease (serum lipid levels [7]; fixed-dose group (2 mg BID), Week 2): −6.38%
LDL-C level change (serum lipid levels [7]; fixed-dose group, after Week 2 through Week 12): −1.96 to −5.98%
